Consider `CN1CCN(CCc2ccc(N/C(=C3\C(=O)Nc4ccc([N+](=O)[O-])cc43)c3ccccc3)cc2)CC1` [Example 135, (Z)-3-{1-[4-(2-(4-methylpiperazino)-ethyl)-phenylamino]-1-phenyl-methylidene}-5-nitro-2-indolinone], for which the melting point – broadly, the temperature of the solid-liquid transition – is 238 to 240 °C.
For the compound `CS(=O)(=O)Nc1ccc(N/C(=C2\C(=O)Nc3ccccc32)c2ccccc2)cc1` [Example 185, (Z)-3-[1-(4-methylsulphonylamino-phenylamino)-1-phenyl-methylidene]-2-indolinone], the melting point fell in the range of 299 to 301 °C.
The figure for `CN(C)S(=O)(=O)c1ccc(N/C(=C2\C(=O)Nc3ccccc32)c2ccccc2)cc1` [Example 405, (Z)-3-{1-[4-(dimethylaminosulphonyl)-phenylamino]-1-phenyl-methylidene}-2-indolinone] is 280 °C.
In turn, `COC(=O)CCNC(=O)c1ccc(/C(Nc2ccc(CN3CCCCC3)cc2)=C2/C(=O)Nc3ccc([N+](=O)[O-])cc32)cc1` [Example 447, (Z)-3-[1-(4-piperidinomethyl-phenylamino)-1-(4-(2-methoxycarbonyl-ethylaminocarbonyl)-phenyl)-methylidene]-5-nitro-2-indolinone] gave a melting point of 130 °C.
Compound `CC(=O)N(CCN(C)C)c1ccc(N/C(=C2\C(=O)Nc3ccc([N+](=O)[O-])cc32)c2ccccc2)cc1` [Example 328, (Z)-3-{1-[4-(N-(2-dimethylaminoethyl)-N-acetyl-amino)-phenylamino]-1-phenyl-methylidene}-5-nitro-2-indolinone] returned a melting point of 228 to 230 °C.
For the compound `CNCC(=O)NCc1ccc(N/C(=C2\C(=O)Nc3ccc([N+](=O)[O-])cc32)c2ccccc2)cc1.Cl`, the melting point was in the range of 195 to 198 °C.
Compound `CCOC(=O)CN(C(C)=O)c1ccc(N/C(=C2\C(=O)Nc3ccccc32)c2ccccc2)cc1` [Example 352, (Z)-3-{1-[4-(N-ethoxycarbonylmethyl-N-acetyl-amino)-phenylamino]-1-phenyl-methylidene}-2-indolinone] showed a melting point of 244 to 247 °C.
The figure for `CC(=O)NCc1ccc(/C(Nc2ccc(CNC(=O)OC(C)(C)C)cc2)=C2/C(=O)Nc3ccc([N+](=O)[O-])cc32)cc1` [Example 150, (Z)-3-[1-(4-tert.butoxycarbonylaminomethyl-phenylamino)-1-(4-acetylaminomethyl-phenyl)-methylidene]-5-nitro-2-indolinone] is 234 °C (dec.).
For `CN(C)CC(=O)NCc1cccc(N/C(=C2\C(=O)Nc3ccc([N+](=O)[O-])cc32)c2ccccc2)c1` [Example 106, (Z)-3-[1-(3-dimethylaminomethylcarbonylaminomethyl-phenylamino)-1-phenyl-methylidene]-5-nitro-2-indolinone], the melting point lay in the range of 171 to 173 °C.
In the case of `O=C1Nc2ccccc2/C1=C(/Nc1ccc(C(=O)N2CCCCC2)cc1)c1ccccc1` [Example 387, (Z)-3-{1-[4-(piperidinocarbonyl)-phenylamino]-1-phenyl-methylidene}-2-indolinone], the melting point lay within 212 to 214 °C.
`CN1C(=O)/C(=C(\Nc2cccc(C#N)c2)c2ccccc2)c2ccccc21` [Example 73, (Z)-1-methyl-3-[1-(3-cyanophenylamino)-1-phenyl-methylidene]-2-indolinone] registered a melting point of 158 to 160 °C.
The figure for `CN(C)CCN(C)C(=O)CN(c1ccc(N/C(=C2\C(=O)Nc3ccccc32)c2ccccc2)cc1)S(C)(=O)=O` [Example 293, (Z)-3-{1-[4-(N—((N-(2-dimethylaminoethyl)-N-methyl-amino)-carbonylmethyl)-N-methylsulphonyl-amino)-phenylamino]-1-phenyl-methylidene}-2-indolinone] is 170 °C; for `CS(=O)(=O)N(CC(N)=O)c1ccc(N/C(=C2\C(=O)Nc3ccccc32)c2ccccc2)cc1` [Example 191, (Z)-3-{1-[4-(N-aminocarbonylmethyl-N-methylsulphonyl-amino)-phenylamino]-1-phenyl-methylidene}-2-indolinone] it is 276 to 278 °C.
`CCC(=O)N(CC(=O)NC)c1ccc(N/C(=C2\C(=O)Nc3ccccc32)c2ccccc2)cc1` [Example 358, (Z)-3-{1-[4-(N-methylaminocarbonylmethyl-N-propionyl-amino)-phenylamino]-1-phenyl-methylidene}-2-indolinone] showed a melting point of 268 °C.
On to `CCS(=O)(=O)N(CC(=O)NCCN(C)C)c1ccc(N/C(=C2\C(=O)Nc3ccc([N+](=O)[O-])cc32)c2ccccc2)cc1` [Example 295, (Z)-3-{1-[4-(N-(2-dimethylamino-ethylaminocarbonylmethyl)-N-ethylsulphonyl-amino)-phenylamino]-1-phenyl-methylidene}-5-nitro-2-indolinone], for which the melting point is 155 °C.
In the case of `Cl.NCC(=O)NCc1cccc(N/C(=C2\C(=O)Nc3ccc([N+](=O)[O-])cc32)c2ccccc2)c1`, the melting point is 309 °C.
In the case of `CN(C)CCN(c1ccc(N/C(=C2\C(=O)Nc3ccc([N+](=O)[O-])cc32)c2ccccc2)cc1)S(C)(=O)=O` [Example 202, (Z)-3-{1-[4-(N-(2-dimethylamino-ethyl)-N-methylsulphonyl-amino)-phenylamino]-1-phenyl-methylidene}-5-nitro-2-indolinone] it was 276 to 277 °C; in that of `COCc1cccc(N/C(=C2\C(=O)Nc3ccccc32)c2ccccc2)c1` [Example 5, (Z)-3-[1-(3-methoxymethyl-phenylamino)-1-phenyl-methylidene]-2-indolinone], 182 to 184 °C; in that of `CC(=O)N(C)c1ccc(N/C(=C2\C(=O)Nc3ccccc32)c2ccccc2)cc1` [Example 47, (Z)-3-{1-[4-(N-acetyl-N-methyl-amino)-phenylamino]-1-phenyl-methylidene}-2-indolinone], 287 to 288 °C.
Regarding `CS(=O)(=O)N(CC(N)=O)c1cccc(N/C(=C2\C(=O)Nc3ccccc32)c2ccc(CN)cc2)c1` [Example 416, (Z)-3-{1-[3-(N-aminocarbonylmethyl-N-methylsulphonyl-amino)-phenylamino]-1-(4-aminomethyl-phenyl)-methylidene}-2-indolinone], the melting point turned out to be 167 °C.
Turning to `CC(C)(C)OC(=O)N1CCN(Cc2ccc(N/C(=C3\C(=O)Nc4ccc([N+](=O)[O-])cc43)c3ccccc3)cc2)CC1` [Example 244, (Z)-3-{1-[4-(4-tert.butoxycarbonyl-piperazin-1-ylmethyl)-phenylamino]-1-phenyl-methylidene}-5-nitro-2-indolinone], the melting point is 236 to 237 °C (dec.).
The compound `NC(=O)c1cccc(N/C(=C2\C(=O)Nc3ccccc32)c2ccccc2)c1` [Example 10, (Z)-3-{1-[3-(aminocarbonyl)phenylamino]-1-phenyl-methylidene}-2-indolinone] displayed a melting point of 258 to 263 °C.
Compound `CC(=O)NCCC(=O)N(C)c1ccc(N/C(=C2\C(=O)Nc3ccccc32)c2ccccc2)cc1` [Example 378, (Z)-3-{1-[4-(N-(2-acetylamino-ethylcarbonyl)-N-methyl-amino)-phenylamino]-1-phenyl-methylidene}-2-indolinone] had a melting point of 187 to 189 °C.
Consider `CN(C)C(=O)CN(c1ccc(N/C(=C2\C(=O)Nc3ccccc32)c2ccccc2)cc1)S(C)(=O)=O` [Example 193, (Z)-3-{1-[4-(N-dimethylaminocarbonylmethyl-N-methylsulphonylamino)-phenylamino]-1-phenyl-methylidene}-2-indolinone], for which the melting point fell in the range of 260 to 262 °C.
For `COCC(=O)N(CCN(C)C)c1ccc(N/C(=C2\C(=O)Nc3ccccc32)c2ccccc2)cc1` [Example 451, (Z)-3-[1-(4-(N-(2-dimethylaminoethyl)-N-methoxymethylcarbonyl-amino)-phenylamino)-1-phenyl-methylidene]-2-indolinone], the melting point fell in the range of 246 to 249 °C.
Consider `CN(Cc1ccc(N/C(=C2\C(=O)Nc3ccc([N+](=O)[O-])cc32)c2ccccc2)cc1)C1CC1` [Example 275, (Z)-3-{1-[4-((N-cyclopropyl-N-methyl-amino)-methyl)-phenylamino]-1-phenyl-methylidene}-5-nitro-2-indolinone], for which the melting point fell in the range of 216 to 217 °C.
`CN(C)CCNS(=O)(=O)c1ccc(N/C(=C2\C(=O)Nc3ccccc32)c2ccccc2)cc1` [Example 399, (Z)-3-{1-[4-(2-dimethylamino-ethylaminosulphonyl)-phenylamino]-1-phenyl-methylidene}-2-indolinone] registered a melting point of 233 to 235 °C.
The compound `CC(=O)N(CCCN(C)C)c1ccc(N/C(=C2\C(=O)Nc3ccccc32)c2ccccc2)cc1` [Example 344, (Z)-3-{1-[4-(N-(3-dimethylaminopropyl)-N-acetyl-amino)-phenylamino]-1-phenyl-methylidene}-2-indolinone] gave a melting point of 227 °C.
The figure for `CS(=O)(=O)N(CC(=O)O)c1cccc(N/C(=C2\C(=O)Nc3ccccc32)c2ccccc2)c1` [Example 318, (Z)-3-{1-[3-(N-carboxymethyl-N-methylsulphonyl-amino)-phenylamino]-1-phenyl-methylidene}-2-indolinone] is 270 °C (dec.).
In the case of `Cl.NCC(=O)NCc1ccc(N/C(=C2\C(=O)Nc3ccccc32)c2ccccc2)cc1` it was 190 to 195 °C.
In the case of `CN(C(=O)CN1C(=O)c2ccccc2C1=O)c1ccc(N/C(=C2\C(=O)Nc3ccccc32)c2ccccc2)cc1` [Example 365, (Z)-3-{1-[4-(N-phthalimidomethylcarbonyl-N-methyl-amino)-phenylamino]-1-phenyl-methylidene}-2-indolinone], the melting point lay in the range of 278 to 280 °C.
As to `CN(C)CCN(c1ccc(N/C(=C2\C(=O)Nc3ccccc32)c2ccccc2)cc1)S(=O)(=O)c1ccccc1` [Example 312, (Z)-3-{1-[4-(N-(2-dimethylaminoethyl)-N-phenylsulphonyl-amino)-phenylamino]-1-phenyl-methylidene}-2-indolinone], the melting point was in the range of 241 to 243 °C.
The figure for `CCOC(=O)CNS(=O)(=O)c1ccc(N/C(=C2\C(=O)Nc3ccc([N+](=O)[O-])cc32)c2ccccc2)cc1` [Example 410, (Z)-3-{1-[4-(ethoxycarbonylmethylaminosulphonyl)-phenylamino]-1-phenyl-methylidene}-5-nitro-2-indolinone] is 247 to 249 °C.

The record behind these values is patent publication US6855710B2, “Substituted indolines with an inhibitory effect on various kinases and complexes of CDKs” (Boehringer Ingelheim Pharma KG, priority 1998, dated 2005).
